Laboratory results reported in US20250340574A1, “MODULATORS OF CYSTIC FIBROSIS TRANSMEMBRANE CONDUCTANCE REGULATOR” (Vertex Pharmaceuticals Incorporated, priority 2022, published 2025).
Where two headings read alike, the source gives them in different places.

Assays:
[1] = molecular target: T1, CFTR (F508del/MF-HBE cells) (Homo sapiens, UniProt P13569, DEL508-508); assay: Ussing chamber assay of CFTR-mediated short-circuit currents, Assay C (0.026 μM to 25 μM, 6 concentrations); format: cell-based; details: with 33 nM potentiator and 18 μM Tezacaftor, 20% human serum; for Emax: read-out: C Max activity (%)
T1 construct: human bronchial epithelial (HBE) cells derived from CF subjects heterozygous for F508del and a minimal function CFTR mutation (F508del/MF-HBE); endogenous in cells; host or cells: Primary human bronchial epithelial cells from CF subjects (F508del/MF genotype), differentiated at an air-liquid interface
T1 sequence (P13569 with tags, fused parts or gaps DEL508-508): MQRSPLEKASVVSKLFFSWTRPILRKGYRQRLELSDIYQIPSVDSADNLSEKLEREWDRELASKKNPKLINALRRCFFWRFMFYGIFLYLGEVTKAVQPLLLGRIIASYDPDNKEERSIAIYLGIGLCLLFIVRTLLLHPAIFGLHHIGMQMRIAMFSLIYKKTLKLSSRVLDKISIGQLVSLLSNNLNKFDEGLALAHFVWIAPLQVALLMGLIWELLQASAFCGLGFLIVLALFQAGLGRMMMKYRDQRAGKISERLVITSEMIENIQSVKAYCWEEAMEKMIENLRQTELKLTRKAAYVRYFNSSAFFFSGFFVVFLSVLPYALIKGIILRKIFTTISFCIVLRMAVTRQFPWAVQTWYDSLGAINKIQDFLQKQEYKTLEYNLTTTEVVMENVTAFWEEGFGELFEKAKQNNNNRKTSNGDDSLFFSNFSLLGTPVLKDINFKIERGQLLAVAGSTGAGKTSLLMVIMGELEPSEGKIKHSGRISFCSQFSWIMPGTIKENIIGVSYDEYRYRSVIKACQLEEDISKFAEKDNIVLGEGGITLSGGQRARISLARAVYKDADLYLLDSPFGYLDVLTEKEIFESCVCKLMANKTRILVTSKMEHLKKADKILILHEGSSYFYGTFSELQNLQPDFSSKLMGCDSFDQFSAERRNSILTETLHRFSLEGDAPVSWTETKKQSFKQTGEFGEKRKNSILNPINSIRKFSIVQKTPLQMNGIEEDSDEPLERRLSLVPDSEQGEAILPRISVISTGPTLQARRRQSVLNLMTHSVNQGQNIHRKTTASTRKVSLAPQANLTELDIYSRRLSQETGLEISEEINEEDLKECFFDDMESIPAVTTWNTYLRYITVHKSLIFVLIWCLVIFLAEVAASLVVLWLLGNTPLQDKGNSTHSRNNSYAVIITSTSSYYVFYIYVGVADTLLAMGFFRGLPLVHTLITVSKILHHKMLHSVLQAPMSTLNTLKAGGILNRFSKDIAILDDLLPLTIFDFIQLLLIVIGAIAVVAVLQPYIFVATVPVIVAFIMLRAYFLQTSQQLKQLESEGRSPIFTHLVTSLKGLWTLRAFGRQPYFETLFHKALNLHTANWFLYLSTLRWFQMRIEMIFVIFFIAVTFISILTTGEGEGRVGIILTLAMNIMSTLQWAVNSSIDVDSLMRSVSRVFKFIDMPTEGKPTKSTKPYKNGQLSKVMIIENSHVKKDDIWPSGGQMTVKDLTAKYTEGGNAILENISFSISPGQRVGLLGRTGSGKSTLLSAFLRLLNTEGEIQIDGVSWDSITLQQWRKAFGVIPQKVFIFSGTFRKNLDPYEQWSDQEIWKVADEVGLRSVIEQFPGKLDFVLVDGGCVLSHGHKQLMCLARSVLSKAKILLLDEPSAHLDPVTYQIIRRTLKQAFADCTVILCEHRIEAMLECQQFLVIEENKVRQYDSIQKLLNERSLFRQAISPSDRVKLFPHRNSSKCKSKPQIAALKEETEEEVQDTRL
Procedure, shortened: (§1)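 Short-circuit current was recorded at 37 °C under voltage clamp (0 mV) with amiloride 30 μM apically, forskolin 20 μM activation, then BPO/GlyH-101/inh-172 (20 μM each) to isolate CFTR current. Before recording, corrector exposure lasted 18–24 h with 18 μM tezacaftor, 20% human serum, and 33 nM (dose–response) or 44 nM (1 μM fixed) potentiator, maintained throughout.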

[2] = molecular target: T1, CFTR (F508del/MF-HBE cells); assay: Ussing chamber assay of CFTR-mediated short-circuit currents, Assay D (single concentration of 1 μM); format: cell-based; details: with 44 nM potentiator and 18 μM Tezacaftor, 20% human serum; for D activity at 1 μM (%): 18-24 hours
Procedure, shortened: as §1

SMILES	Emax ([1]; 18-24 hours)	EC50 [1]	D activity at 1 μM (%) [2]	Emax [1]	D act. at 1 μM (%) [2]
Cc1cccc(C)c1-c1cc2nc(n1)NS(=O)(=O)c1cccc(c1)C(=O)N(Cc1cnc3cc(C4CC4)n(C)c3n1)[C@@H](CCC1(C)CC1)CO2 (stereo in doubt) [Compound I-207]	> 60%	< 1000 nM	+++ (+++ is >60%)		
Cc1cccc(C)c1-c1cc2nc(n1)NS(=O)(=O)c1cccc(c1)C(=O)N(Cc1cnc3oc(C(C)(C)C)cc3n1)[C@H](CC(C)(C)C)CO2 [Compound I-218]	> 60%	< 1000 nM	+++ (+++ is >60%)		
Cc1cccc(CC(C)C)c1-c1nc2nc(c1C)OC[C@@H](COC(C)C)N(Cc1cnc3cc(C(C)C)n(C)c3n1)C(=O)c1cccc(c1)S(=O)(=O)N2 (atropisomer, axis not shown) [Compound I-211]	> 60%	< 1000 nM	+++ (+++ is >60%)		
Cc1cccc(C)c1-c1cc2nc(n1)NS(=O)(=O)c1cccc(c1)C(=O)N(Cc1cnc3oc(C)c(C4CC4)c3n1)[C@H](CC13CC(C1)C3)CO2 [Compound I-86]	> 60%	1000 to 3000 nM	+++ (+++ is >60%)		
Cc1cccc(C)c1-c1nc2nc(c1C)OC[C@@H](CC1(C)CC1)N(Cc1cnc3cc(C(C)(C)C)n(C)c3n1)C(=O)c1cccc(c1)S(=O)(=O)N2 [Compound I-222]	> 60%	< 1000 nM	+++ (+++ is >60%)		
Cc1cccc(CC(C)C)c1-c1nc2nc(c1C)OC[C@@H](CC(C)(C)C)N(Cc1cnc3nc(C(C)C)n(C)c3n1)C(=O)c1cccc(c1)S(=O)(=O)N2 (atropisomer, axis not shown) [Compound I-171]	> 60%	< 1000 nM	+++ (+++ is >60%)		
Cc1cccc(C)c1-c1cc2nc(n1)NS(=O)(=O)c1cccc(c1)C(=O)N(Cc1cnc3oc(C(C)(C)CO)cc3n1)[C@H](CC13CC(C1)C3)CO2 [Compound I-113, (11R)-11-(1-bicyclo[1.1.1]pentanylmethyl)-6-(2,6-dimethylphenyl)-12-[[6-(2-hydroxy-1,1-dimethyl-ethyl)furo[2,3-b]pyrazin-2-yl]methyl]-2,2-dioxo-9-oxa-2λ^6-thia-3,5,12,19-tetrazatricyclo[12.3.1.14,8]nonadeca-1(18),4(19),5,7,14,16-hexaen-13-one]	> 60%	3000 to 30000 nM	+++ (+++ is >60%)		
COc1c2nc(nc1-c1c(C)cccc1C)NS(=O)(=O)c1cccc(c1)C(=O)N(Cc1cnc3cc(C(C)C)n(C)c3n1)[C@H](CC(C)(C)C)CC2 [Compound I-158]	> 60%	1000 to 3000 nM	+++ (+++ is >60%)		
Cc1cccc(C)c1-c1cc2nc(n1)NS(=O)(=O)c1cccc(c1)C(=O)N(Cc1ncc3cc(C4CC4)n(C)c3n1)[C@H](CC1(C)CC1)CO2 [Compound I-263]	> 60%	1000 to 3000 nM	+++ (+++ is >60%)		
Cc1cccc(CC2CCCC2)c1-c1nc2nc(c1C)OC[C@@H](CC(C)(C)C)N(Cc1cnc3oc(C4CC4)cc3n1)C(=O)c1cccc(c1)S(=O)(=O)N2 (atropisomer, axis not shown) [Compound I-195]	> 60%	< 1000 nM	+++ (+++ is >60%)		
Cc1cccc(CC(C)C)c1-c1nc2nc(c1C)OC[C@@H](CC(C)(C)C)N(Cc1cnc3nc(C4CC4)n(C)c3n1)C(=O)c1cccc(c1)S(=O)(=O)N2 (atropisomer, axis not shown) [Compound I-170]	> 60%	< 1000 nM	+++ (+++ is >60%)		
Cc1cccc(C)c1-c1nc2nc(c1C)OC[C@@H](CC13CC(C1)C3)N(Cc1cnc3cc(C4(C)CC4)n(C)c3n1)C(=O)c1cccc(c1)S(=O)(=O)N2 [Compound I-228]	> 60%	< 1000 nM	+++ (+++ is >60%)		
Cc1cccc(C(C)C)c1-c1nc2nc(c1C)OC[C@@H](CC(C)(C)C)N(Cc1cnc3oc(C(C)C)cc3n1)C(=O)c1cccc(c1)S(=O)(=O)N2 (atropisomer, axis not shown) [Compound I-135]			+++ (+++ is >60%)		
Cc1cccc(C)c1-c1cc2nc(n1)NS(=O)(=O)c1cccc(c1)C(=O)N(Cc1nc3c(cc1F)nc(C(C)C)n3C)[C@H](CC1(C)CC1)CO2 [Compound I-79]			+++ (+++ is >60%)		
COC1(C[C@@H]2COc3cc(-c4c(C)cccc4C)nc(n3)NS(=O)(=O)c3cccc(c3)C(=O)N2Cc2cnc3oc(C(C)C)cc3n2)CCC1 [Compound I-76]			+++ (+++ is >60%)		
Cc1cccc(C)c1-c1cc2nc(n1)NS(=O)(=O)c1cccc(c1)C(=O)N(Cc1cnc3cn(C(C)C)nc3n1)[C@H](COC(C)C)CO2 [Compound I-132]			+++ (+++ is >60%)		
Cc1cccc(C)c1-c1cc2nc(n1)NS(=O)(=O)c1cccc(c1)C(=O)N(Cc1cnc3oc(C(C)C)c(C#N)c3n1)[C@H](CC(C)(C)C)CO2 [Compound I-74]			+++ (+++ is >60%)		
Cc1cccc(C)c1-c1cc2nc(n1)NS(=O)(=O)c1cccc(c1)C(=O)N(Cc1cnc3oc(C4(C)CC4)cc3n1)[C@H](COC(C)C)CO2 [Compound I-186]			+++ (+++ is >60%)		
Cc1cccc(C)c1-c1cc2nc(n1)NS(=O)(=O)c1cccc(c1)C(=O)N(Cc1cnc3oc(C4CC4)cc3n1)[C@@H](CC1CC(C)(C)C1)CO2 (single isomer, unassigned) [Compound I-166, 12-[(6-cyclopropylfuro[2,3-b]pyrazin-2-yl)methyl]-11-[(3,3-dimethylcyclobutyl)methyl]-6-(2,6-dimethylphenyl)-2,2-dioxo-9-oxa-2λ^6-thia-3,5,12,19-tetrazatricyclo[12.3.1.14,8]nonadeca-1(18),4(19),5,7,14,16-hexaen-13-one]			++ (++ is 30-60%)		

Further lines, results first:

Emax ([1]; 18-24 hours)	EC50 [1]	D activity at 1 μM (%) [2]	Emax [1]	D act. at 1 μM (%) [2]	SMILES
	1000 to 3000 nM		> 60%	+++ (+++ is >60%)	Cc1cccc(C)c1-c1cc2nc(n1)NS(=O)(=O)c1cccc(c1)C(=O)N(Cc1ncc3cc(C(C)(C)C)n(C)c3n1)[C@H](CC(C)(C)C)CO2 [IV-38]
	3000 to 30000 nM		> 60%	+++ (+++ is >60%)	Cc1cccc(C)c1-c1cc2nc(n1)NS(=O)(=O)c1cccc(c1)C(=O)N(Cc1cnc3oc(-c4ccnn4C)cc3n1)[C@H](CC1(C)CC1)CO2 [IV-30]
	1000 to 3000 nM		> 60%	+++ (+++ is >60%)	Cc1cccc(CC(C)C)c1-c1nc2nc(c1C)OC[C@@H](CC(C)(C)C)N(Cc1ncc3cc(C(C)(C)C)n(C)c3n1)C(=O)c1cccc(c1)S(=O)(=O)N2 (atropisomer, axis not shown) [IV-47]
	3000 to 30000 nM		> 60%	+++ (+++ is >60%)	Cc1cccc(C)c1-c1cc2nc(n1)NS(=O)(=O)c1cccc(c1)C(=O)N(Cc1cnc3oc(C4CCOCC4)cc3n1)[C@H](CC1(C)CC1)CO2 [IV-27]
	1000 to 3000 nM		> 60%	+++ (+++ is >60%)	Cc1cccc(COC(C)C)c1-c1nc2nc(c1C)OC[C@@H](CC(C)(C)C)N(Cc1cnc3oc(C4CC4)cc3n1)C(=O)c1cccc(c1)S(=O)(=O)N2 [IV-39]
	< 1000 nM		> 60%	+++ (+++ is >60%)	COc1c2nc(nc1-c1c(C)cccc1C)NS(=O)(=O)c1cccc(c1)C(=O)N(Cc1cnc3cc(C4(C)CC4)n(C)c3n1)[C@H](COC(C)C)CO2 [IV-11]
	1000 to 3000 nM		> 60%	+++ (+++ is >60%)	CCC(C)(C)C[C@H]1COc2cc(-c3c(C)cccc3C)nc(n2)NS(=O)(=O)c2cccc(c2)C(=O)N1Cc1cnc2oc(C3CC3)cc2n1 [IV-34]
	1000 to 3000 nM		> 60%	+++ (+++ is >60%)	Cc1cccc(CC(C)C)c1-c1nc2nc(c1C)OC[C@@H](CC1(C)CC1)N(Cc1cnc3cc(C(C)(C)C)n(C)c3n1)C(=O)c1cccc(c1)S(=O)(=O)N2 (atropisomer, axis not shown) [IV-44]
	1000 to 3000 nM		> 60%	+++ (+++ is >60%)	Cc1cccc(C)c1-c1cc2nc(n1)NS(=O)(=O)c1cccc(c1)C(=O)N(Cc1cnc3oc(C(C)(C)C)cc3n1)[C@H](CC1(C)CCC1)CO2 [IV-5]
		+++ (+++ is >60%)			Cc1cccc(C)c1-c1cc2nc(n1)NS(=O)(=O)c1cccc(c1)C(=O)N(Cc1nc3c(cc(C(C)C)n3C)s1)[C@H](CC(C)(C)C)CO2 [III-20, (11R)-6-(2,6-dimethylphenyl)-11-(2,2-dimethylpropyl)-12-[(5-isopropyl-4-methyl-pyrrolo[2,3-d]thiazol-2-yl)methyl]-2,2-dioxo-9-oxa-2λ^6-thia-3,5,12,19-tetrazatricyclo[12.3.1.14,8]nonadeca-1(18),4(19),5,7,14,16-hexaen-13-one]
				+++ (+++ is >60%)	Cc1cccc(C)c1-c1cc2nc(n1)NS(=O)(=O)c1cccc(c1)C(=O)N(Cc1cnc3oc(C#N)cc3n1)[C@H](CC1(C)CC1)CO2 [IV-28]
				+++ (+++ is >60%)	COCc1cc2nc(CN3C(=O)c4cccc(c4)S(=O)(=O)Nc4nc(cc(-c5c(C)cccc5C)n4)OC[C@H]3CC3(C)CC3)cnc2o1 [IV-16, (11R)-6-(2,6-dimethylphenyl)-12-[[6-(methoxymethyl)furo[2,3-b]pyrazin-2-yl]methyl]-11-[(1-methylcyclopropyl)methyl]-2,2-dioxo-9-oxa-2λ^6-thia-3,5,12,19-tetrazatricyclo[12.3.1.14,8]nonadeca-1(18),4(19),5,7,14,16-hexaen-13-one]
